Values quoted from earlier work, collected in patent US20040097481A1, “Water-soluble mesoporphyrin compounds and methods of preparation” (priority 2002, published 2004).

Conditions: product of the above-referenced known preparation methods

SMILES: CCC1=C(C)c2cc3[n-]c(cc4[n-]c(cc5nc(cc1n2)C(C)=C5CC)c(C)c4CCC(=O)O)c(CCC(=O)O)c3C.[Cl-].[Cl-].[Sn+4] [stannsoporfin, Tin (IV) mesoporphyrin IX chloride]
- Water solubility: non-water soluble
